{"source": "patent US20220387405A1", "about": "“METHODS OF TREATMENT WITH N-((R)-1-(3-CHLOROPYRIDIN-2-YL)-2,2,2-TRIFLUOROETHYL)-2-((S)-2,6-DIOXOPIPERIDIN-3-YL)-1-OXOISOINDOLINE-5-CARBOXAMIDE” (CELGENE CORPORATION, priority 2021, published 2022)", "key": {"[1]": {"tested_on": "AML cell lines with TP53 loss or mutation", "assay": "Activity against AML cell lines with TP53 loss or mutation", "format": "cell-based", "text": "The remaining 5 cell lines were either medium-sensitive or completely resistant to Compound 1; the unresponsiveness to Compound 1 treatment was associated with inadequate accumulation of p53 protein and/or its transcriptional targets BAX and PUMA."}, "[2]": {"tested_on": "Normal T lymphocytes in BM samples", "assay": "PharmaFlow test, normal T lymphocytes in AML patient BM samples", "format": "cell-based, human", "conditions": "BM samples of AML patients; for Compound 1 all but 1 patient"}, "[3]": {"tested_on": "CD34+ cells from BM samples of healthy donors", "assay": "Liquid culture of CD34+ cells from healthy donors (FACS)", "format": "cell-based, human", "description": "CD34^+ cells isolated from BM samples of 3 TP53 WT AML donors and 3 healthy donors were treated with increasing concentrations of Compound 1 in liquid culture at times ranging from 4 hours to 5 days. […] Acute myeloid leukemia blasts sustained CK1α degradation up to 5 days in culture as assessed by fluorescence-activated cell sorting (FACS) analysis. Strikingly, p53 stabilization was sustained longer in leukemic cells (up to 48 hours) compared with normal BM cells (for 24 hours)."}, "[4]": {"biological_target": "T1, hERG potassium channel (Homo sapiens, UniProt Q12809)", "T1 construct": "expressed in transfected cells; host or cells: HEK-293", "T1 sequence (Q12809 whole entry)": "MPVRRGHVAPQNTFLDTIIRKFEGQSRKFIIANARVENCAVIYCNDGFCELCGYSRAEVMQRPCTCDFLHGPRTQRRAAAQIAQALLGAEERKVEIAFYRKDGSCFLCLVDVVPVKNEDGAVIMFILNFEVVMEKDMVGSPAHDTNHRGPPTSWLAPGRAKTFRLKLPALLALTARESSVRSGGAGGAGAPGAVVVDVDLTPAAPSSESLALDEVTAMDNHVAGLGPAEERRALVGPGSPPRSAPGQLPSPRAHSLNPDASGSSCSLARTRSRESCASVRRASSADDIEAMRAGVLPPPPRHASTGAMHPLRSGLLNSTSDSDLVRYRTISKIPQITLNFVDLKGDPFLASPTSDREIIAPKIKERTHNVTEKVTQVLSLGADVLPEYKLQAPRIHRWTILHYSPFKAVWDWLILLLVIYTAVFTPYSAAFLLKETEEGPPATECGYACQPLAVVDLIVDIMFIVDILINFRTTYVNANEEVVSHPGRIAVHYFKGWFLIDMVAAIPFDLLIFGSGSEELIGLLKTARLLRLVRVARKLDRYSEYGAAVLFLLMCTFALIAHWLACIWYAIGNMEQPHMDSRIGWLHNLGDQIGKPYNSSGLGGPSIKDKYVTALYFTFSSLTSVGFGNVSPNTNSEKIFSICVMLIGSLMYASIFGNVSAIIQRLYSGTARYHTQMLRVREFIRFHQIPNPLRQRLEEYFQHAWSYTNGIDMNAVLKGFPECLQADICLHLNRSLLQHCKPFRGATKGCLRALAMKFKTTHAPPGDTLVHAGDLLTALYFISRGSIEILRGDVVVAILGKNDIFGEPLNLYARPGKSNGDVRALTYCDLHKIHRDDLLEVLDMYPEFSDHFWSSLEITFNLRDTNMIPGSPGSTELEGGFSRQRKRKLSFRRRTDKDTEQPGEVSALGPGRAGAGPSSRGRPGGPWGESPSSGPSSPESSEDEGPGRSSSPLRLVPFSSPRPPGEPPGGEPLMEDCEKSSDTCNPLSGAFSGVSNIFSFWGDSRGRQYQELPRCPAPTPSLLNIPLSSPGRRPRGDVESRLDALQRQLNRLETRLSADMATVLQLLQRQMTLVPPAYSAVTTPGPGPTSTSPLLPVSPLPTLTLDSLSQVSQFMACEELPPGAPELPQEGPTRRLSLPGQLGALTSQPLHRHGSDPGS", "assay": "hERG IonWorks Barracuda patch clamp electrophysiology assay", "format": "cell-based", "conditions": "human, HEK-293 cells expressing cloned hERG potassium channel; at 30 μM; read-out: percent inhibition", "description": "The effect of Compound 1 on the cloned hERG potassium channel expressed in the HEK-293 cell line was also investigated. […] The percent inhibition at 30 μM was 19%."}, "[5]": {"assay": "Plasma protein binding", "format": "in vitro ADME, human and nonclinical species", "text": "There was no marked difference in free fraction among human, rat and monkey. Over the concentration ranges tested (25- to 50-fold range) in each species, there was <2-fold change in free fraction."}, "[6]": {"biological_target": "T2, CYP1A2 (Homo sapiens, UniProt P05177)", "T2 construct": "In human liver microsomes; from tissue; host or cells: human liver microsomes", "T2 sequence (P05177 whole entry)": "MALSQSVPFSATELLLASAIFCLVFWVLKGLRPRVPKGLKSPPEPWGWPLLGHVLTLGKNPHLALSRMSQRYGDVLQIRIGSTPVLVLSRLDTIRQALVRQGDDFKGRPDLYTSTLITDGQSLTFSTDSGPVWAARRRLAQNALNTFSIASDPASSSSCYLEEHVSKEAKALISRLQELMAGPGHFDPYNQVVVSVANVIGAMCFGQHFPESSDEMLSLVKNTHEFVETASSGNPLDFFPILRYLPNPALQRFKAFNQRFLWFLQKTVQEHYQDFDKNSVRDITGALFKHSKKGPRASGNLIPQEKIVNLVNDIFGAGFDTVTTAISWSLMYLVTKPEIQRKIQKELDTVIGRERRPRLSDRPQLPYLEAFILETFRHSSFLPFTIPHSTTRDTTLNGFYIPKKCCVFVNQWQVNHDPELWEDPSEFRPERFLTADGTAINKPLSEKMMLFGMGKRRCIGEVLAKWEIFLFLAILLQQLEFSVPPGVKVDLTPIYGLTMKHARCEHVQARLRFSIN", "assay": "CYP inhibition in human liver microsomes, CYP1A2", "format": "in vitro ADME"}, "[7]": {"assay": "Dose toxicity and toxicokinetics study in rats", "format": "in vivo", "conditions": "for AUC / Cmax: both sexes; for AUC / Cmax / NOAEL: rat, in vivo, po; for NOAEL: female, oral gavage, read-out: NOAEL (females)", "description": "Additionally, control animals were dosed with a vehicle using a combination of both dosing regimens. Recovery of test article-related effects was evaluated during a 4-week recovery period.\nAnimals in Regimen 1 were dosed for 7 consecutive days in each 4-week cycle for 2 cycles (0.3 or 3 mg/kg on Days 1-7 and 29-35), whereas animals in Regimen 2 were dosed twice weekly for 4 weeks (0.5 or 5 mg/kg on Days 1, 4, 8, 11, 15, 18, 22 and 25). End of dosing necropsy was performed on the day after the last dose administration. A 4-week recovery period was included to assess reversibility of findings."}, "[8]": {"assay": "GLP repeat-dose toxicity and toxicokinetics study in monkeys", "format": "in vivo, cynomolgus monkeys", "conditions": "for AUC / Cmax: plasma, po", "description": "Cardiovascular assessments (electrocardiograms [ECGs] and heart rates) were conducted in conscious cynomolgus monkeys as part of the Good Laboratory Practice (GLP)-compliant repeat dose toxicity study. In this study, Compound 1 was administered by oral gavage to Cynomolgus monkeys (5/sex/group) in Groups 1-5 at doses of 0 (0.5% (w/v) Methylcellulose, 0.25% (v/v) Tween 80 in 50 mM citrate buffer pH 3), 0.03, 0.1, 0.1 and 0.3 mg/kg, respectively, intermittently using 2 different dosing regimens. Groups 2 and 3 animals were dosed for 7 consecutive days in each 4-week cycle for 2 cycles (Regimen 1: on Days 1-7 and 29-35), whereas Groups 4 and 5 animals were dosed twice weekly for 4 weeks (Regimen 2: on Days 1, 4, 8, 11, 15, 18, 22 and 25). A combination of both dosing regimens (Days 1-7, 8, 11, 15, 18, 22, 25, and 29-35) was used for administration of the vehicle to the control animals. A 9-lead ECG recording was made on all animal during pretest and on all animals in Groups 4 and 5 on Day 22 (1 hour postdose±15 minutes) and on all animals in Groups 1, 2 and 3 during Week 5 (1 hour postdose±15 minutes) using standard limb leads I, II and III; augmented leads aVR, aVL and aVF as well as chest leads MV1, MV2 and MV3. All ECGs were performed while the unanesthetized animal was sitting in an up-right position in a restraint chair. Qualitative (visual inspection) and quantitative assessments including heart rates and PR, QRS, RR, QT, and QTc intervals were performed. QTc was calculated using Bazett's formula.\nIn a repeat-dose toxicity study in monkeys, Compound 1 was administered by oral gavage intermittently using 2 different dosing regimens. Animals in Regimen 1 were dosed for 7 consecutive days in each 4-week cycle for 2 cycles (0.03 or 0.1 mg/kg on Days 1-7 and 29-35), whereas animals in Regimen 2 were dosed twice weekly for 4 weeks (0.1 or 0.3 mg/kg on Days 1, 4, 8, 11, 15, 18, 22 and 25).\nEnd of dosing necropsy was performed on the day after the last dose administration. A 4-week recovery period was included to assess reversibility of findings. Administration of Compound 1 was associated with mortality at 0.1 mg/kg using Regimen 1 during the recovery phase. Three animals (2 males and 1 female) were euthanized for welfare reasons and one female was found dead due to reduction (marked to severe) in BM cellularity resulting in severe leukopenia and likely bacteremia, as well as in severe thrombocytopenia with disseminated petechial hemorrhage."}, "[9]": {"conditions": "0.3 mg/kg, Regimen 1, sexes combined"}, "[10]": {"conditions": "0.5 mg/kg, Regimen 2, sexes combined"}, "[11]": {"conditions": "Regimen 2 (twice weekly for 4 weeks)"}, "[12]": {"conditions": "both sexes, cynomolgus monkey, 0.03 mg/kg, Regimen 1, sexes combined"}, "[13]": {"conditions": "both sexes, cynomolgus monkey, 0.1 mg/kg, Regimen 2, sexes combined"}}, "data": [{"smiles": "O=C1CC[C@H](N2Cc3cc(C(=O)N[C@H](c4ncccc4Cl)C(F)(F)F)ccc3C2=O)C(=O)N1", "note": "[Compound 1, N-((R)-1-(3-chloropyridin-2-yl)-2,2,2-trifluoroethyl)-2-((S)-2,6-dioxopiperidin-3-yl)-1-oxoisoindoline-5-carboxamide]", "values": [{"measurement": "sensitivity to treatment", "setting": "[1]", "value": "insensitive"}, {"measurement": "cytotoxicity in T lymphocytes", "setting": "[2]", "value": "noticeably more resistant"}, {"measurement": "duration of sustained p53 stabilization", "setting": "[3]; normal BM cells", "value": 24, "unit": "h"}, {"measurement": "cellular outcome", "setting": "[3]; normal cells", "value": "Cycle arrest"}, {"measurement": "inhibition at 30 µM", "setting": "[4]", "value": 19, "unit": "%"}, {"measurement": "change in free fraction", "setting": "[5]; over the concentration ranges tested (25- to 50-fold range) in each species", "value": "< 2", "unit": "fold"}, {"measurement": "fraction unbound", "setting": "[5]; plasma, human and nonclinical species", "value": "0.007 to 0.103"}, {"measurement": "time-dependent inhibition", "setting": "[6]; CYP1A2, 30-minute preincubation with NADPH", "value": "not a time-dependent inhibition"}, {"measurement": "inhibitory effect", "setting": "[6]; human liver microsomes, CYP1A2", "value": "≤ 25", "unit": "%"}, {"measurement": "severely toxic dose in 10% of the animals (STD 10)", "setting": "[7]; Regimen 1", "value": 0.3, "unit": "mg/kg"}, {"measurement": "severely toxic dose in 10% of the animals (STD 10)", "setting": "[7]; Regimen 2", "value": 0.5, "unit": "mg/kg"}, {"measurement": "NOAEL (males)", "setting": "[7]; both regimens", "value": "not identified"}, {"measurement": "AUC", "setting": "[7]; [9]", "value": 761, "unit": "ng·h/mL"}, {"measurement": "Cmax", "setting": "[7]; [9]", "value": 225, "unit": "ng/mL"}, {"measurement": "AUC", "setting": "[7]; [10]", "value": 1200, "unit": "ng·h/mL"}, {"measurement": "Cmax", "setting": "[7]; [10]", "value": 263, "unit": "ng/mL"}, {"measurement": "NOAEL", "setting": "[7]; Regimen 1 (Days 1-7 and 29-35)", "value": 0.3, "unit": "mg/kg"}, {"measurement": "NOAEL", "setting": "[7]; [11]", "value": 0.5, "unit": "mg/kg"}, {"measurement": "lethality", "setting": "[8]; 0.1 mg/kg, Regimen 1, during the recovery phase", "value": "mortality"}, {"measurement": "sex-combined mean maximum observed plasma concentration", "setting": "[8]; 0.1 mg/kg/day, Regimen 1, Day 34", "value": 31.9, "unit": "ng/mL"}, {"measurement": "fold higher than anticipated human Cmax of 0.4 ng/mL", "setting": "[8]; 0.1 mg/kg/day, Regimen 1, Day 34 vs human starting dose 0.1 mg/day", "value": "approximately 80 fold"}, {"measurement": "sex-combined mean maximum observed plasma concentration", "setting": "[8]; 0.3 mg/kg/day, Regimen 2, Day 15", "value": 62.6, "unit": "ng/mL"}, {"measurement": "fold higher than anticipated human Cmax of 0.4 ng/mL", "setting": "[8]; 0.3 mg/kg/day, Regimen 2, Day 15 vs human starting dose 0.1 mg/day", "value": "~157", "unit": "fold"}, {"measurement": "highest non-STD (HNSTD)", "setting": "[8]; Regimen 1", "value": 0.03, "unit": "mg/kg"}, {"measurement": "highest non-STD (HNSTD)", "setting": "[8]; Regimen 2", "value": 0.1, "unit": "mg/kg"}, {"measurement": "NOAEL", "setting": "[8]; [11]", "value": "not identified"}, {"measurement": "NOAEL", "setting": "[8]; both sexes, cynomolgus monkey, in vivo, Regimen 1 (Days 1-7 and 29-35), oral gavage, read-out: NOAEL", "value": 0.03, "unit": "mg/kg"}, {"measurement": "AUC", "setting": "[8]; [12]", "value": 51.4, "unit": "ng·h/mL"}, {"measurement": "Cmax", "setting": "[8]; [12]", "value": 9.95, "unit": "ng/mL"}, {"measurement": "AUC", "setting": "[8]; [13]", "value": 173, "unit": "ng·h/mL"}, {"measurement": "Cmax", "setting": "[8]; [13]", "value": 21.5, "unit": "ng/mL"}]}]}
